{
  "source": "paper PMC9496563",
  "about": "“Functional Evaluation and Nephrotoxicity Assessment of Human Renal Proximal Tubule Cells on a Chip” (Biosensors, 2022)",
  "key": {"[1]": {"test_system": "HK2 cells", "assay": "Active absorption (Papp) through HK2 model on the iBAC", "type": "in vitro ADME, human", "conditions": "day 4", "experimental": "(§1) After the microdevice was assembled, it was exposed to ultraviolet light for 30 min. The porous membrane was coated with collagen type I hydrogel at 37 °C for 2 h. The hRPTECs or HK2 cells (2 × 10^5 cells/ cm^2) were seeded on the lower microfluidic channel and incubated upside down at 37 °C for 2 h, allowing the seeded hRPTECs or HK2 cells to attach to the porous membrane surface. Then, 100 μL of the culture medium was added to each chamber and the device was placed on the iBAC Rocker (MR100110, Daxiang biotech, Beijing, China) for dynamic culture.\n(§2) After two hours of dynamic absorption, the sample concentrations of FITC-albumin (Ex = 495 nm, Em = 535 nm), ASP+ (Ex = 474 nm, Em = 606 nm) and 5−CF (Ex = 490 nm, Em = 515 nm) were detected by using a microplate reader (BMG Labtech, Germany).\n(§3) The Papp was calculated using the equation below:Papp [cm/s] = (1/AC0)(dQ/dt) where A = area of mass transfer, C0 = donor concentration of reagent in the upper medium, and dQ/dt = transmembrane transportation rate."}, "[2]": {"test_system": "hRPTECs", "assay": "Active absorption (Papp) through hRPTECs on the static Transwell", "type": "in vitro ADME, human", "conditions": "day 4", "experimental": "as §2, §3"}, "[3]": {"test_system": "hRPTECs", "assay": "Active absorption (Papp) through hRPTECs on the iBAC", "type": "in vitro ADME, human", "conditions": "for Papp value: hRPTECs on the iBAC, day 4, two hours of dynamic absorption, FITC-albumin (Megalin/Cubilin), ASP+ (OCT2), 5-CF (OAT1)", "experimental": "as §1, §2, §3"}, "[4]": {"target": "T1, BCRP (Homo sapiens, UniProt Q9UNQ0)", "T1 sequence (Q9UNQ0 1-655)": "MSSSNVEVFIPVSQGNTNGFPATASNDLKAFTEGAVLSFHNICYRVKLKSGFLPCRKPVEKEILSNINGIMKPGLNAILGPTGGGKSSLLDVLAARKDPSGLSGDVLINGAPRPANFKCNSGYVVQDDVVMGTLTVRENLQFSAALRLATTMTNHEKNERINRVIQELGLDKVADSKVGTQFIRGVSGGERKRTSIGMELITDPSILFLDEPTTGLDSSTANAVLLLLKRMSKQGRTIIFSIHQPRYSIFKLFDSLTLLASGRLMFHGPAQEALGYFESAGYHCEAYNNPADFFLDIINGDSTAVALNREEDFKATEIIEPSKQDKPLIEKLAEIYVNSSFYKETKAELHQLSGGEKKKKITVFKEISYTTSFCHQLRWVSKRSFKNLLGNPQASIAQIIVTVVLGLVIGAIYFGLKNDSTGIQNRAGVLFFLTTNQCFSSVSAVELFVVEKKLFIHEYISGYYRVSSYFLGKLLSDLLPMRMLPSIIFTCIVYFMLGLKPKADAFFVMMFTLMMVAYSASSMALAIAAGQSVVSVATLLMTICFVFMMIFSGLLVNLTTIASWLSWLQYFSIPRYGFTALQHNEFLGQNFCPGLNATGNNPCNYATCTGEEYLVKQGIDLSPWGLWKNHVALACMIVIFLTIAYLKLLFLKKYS", "assay": "BCRP efflux function (DiOC2 with or without Ko143), hRPTECs on the iBAC", "type": "in vitro ADME", "experimental": "as §3"}, "[5]": {"target": "T1, BCRP", "assay": "BCRP efflux function (DiOC2 with or without Ko143), HK2 model on the iBAC", "type": "in vitro ADME", "conditions": "without inhibitor", "experimental": "as §3"}, "[6]": {"test_system": "HK2 cells", "assay": "LDH release from HK2 cells on the iBAC", "type": "cell-based, human", "conditions": "24 h", "experimental": "as §1\n(§4) The Live/Dead kit (Thermo Fisher, Waltham, MA, USA), LDH kit (Life Technologies, Paisley, UK) and CellTiter-Glo (Promega, Madison, WI, USA) were used to evaluate cell viability on the iBAC. These assays were performed on test compound-treated monolayers following the manufacturer’s instructions. The assay protocols are described briefly here. In the live/dead cell assay, the cells were incubated with the live/dead cell imaging reagents for 15–30 min at 37 °C and observed under a fluorescent microscope. […] In the CellTiter-Glo luminescent cell viability assay, the cells were incubated with the CellTiter-Glo reagents for 30 min at room temperature and detected with a microplate reader. […] The absorbance was then taken at 490 nm and 680 nm using a microplate reader (BMG Labtech, Germany)."}, "[7]": {"test_system": "hRPTECs", "type": "cell-based, human", "conditions": "hRPTECs on the iBAC, 24 h", "experimental": "as §1, §4"}, "[8]": {"test_system": "hRPTECs", "type": "cell-based", "experimental": "as §1\n(§5) The Live/Dead kit (Thermo Fisher, Waltham, MA, USA), LDH kit (Life Technologies, Paisley, UK) and CellTiter-Glo (Promega, Madison, WI, USA) were used to evaluate cell viability on the iBAC. These assays were performed on test compound-treated monolayers following the manufacturer’s instructions. The assay protocols are described briefly here. In the live/dead cell assay, the cells were incubated with the live/dead cell imaging reagents for 15–30 min at 37 °C and observed under a fluorescent microscope. The viable cells were stained green, while the dead ones were stained red. In the CellTiter-Glo luminescent cell viability assay, the cells were incubated with the CellTiter-Glo reagents for 30 min at room temperature and detected with a microplate reader. For the LDH assay, 50 μL of medium from each well of the treatment plates was transferred into fresh 96-well plates and an equal volume of LDH reaction mixture was added. The samples were incubated at room temperature for 30 min before the reaction was stopped by adding 50 μL of stop solution. The absorbance was then taken at 490 nm and 680 nm using a microplate reader (BMG Labtech, Germany)."}, "[9]": {"test_system": "HK2 cells", "assay": "cells", "type": "cell-based", "conditions": "HK2 cells on the iBAC, 48 h; for IC50: Homo sapiens, HK-2, apical side, read-out: IC50 (cell viability)", "experimental": "as §1, §5"}, "[10]": {"target": "T2, P-gp (Homo sapiens, UniProt P08183)", "T2 sequence (P08183 whole entry)": "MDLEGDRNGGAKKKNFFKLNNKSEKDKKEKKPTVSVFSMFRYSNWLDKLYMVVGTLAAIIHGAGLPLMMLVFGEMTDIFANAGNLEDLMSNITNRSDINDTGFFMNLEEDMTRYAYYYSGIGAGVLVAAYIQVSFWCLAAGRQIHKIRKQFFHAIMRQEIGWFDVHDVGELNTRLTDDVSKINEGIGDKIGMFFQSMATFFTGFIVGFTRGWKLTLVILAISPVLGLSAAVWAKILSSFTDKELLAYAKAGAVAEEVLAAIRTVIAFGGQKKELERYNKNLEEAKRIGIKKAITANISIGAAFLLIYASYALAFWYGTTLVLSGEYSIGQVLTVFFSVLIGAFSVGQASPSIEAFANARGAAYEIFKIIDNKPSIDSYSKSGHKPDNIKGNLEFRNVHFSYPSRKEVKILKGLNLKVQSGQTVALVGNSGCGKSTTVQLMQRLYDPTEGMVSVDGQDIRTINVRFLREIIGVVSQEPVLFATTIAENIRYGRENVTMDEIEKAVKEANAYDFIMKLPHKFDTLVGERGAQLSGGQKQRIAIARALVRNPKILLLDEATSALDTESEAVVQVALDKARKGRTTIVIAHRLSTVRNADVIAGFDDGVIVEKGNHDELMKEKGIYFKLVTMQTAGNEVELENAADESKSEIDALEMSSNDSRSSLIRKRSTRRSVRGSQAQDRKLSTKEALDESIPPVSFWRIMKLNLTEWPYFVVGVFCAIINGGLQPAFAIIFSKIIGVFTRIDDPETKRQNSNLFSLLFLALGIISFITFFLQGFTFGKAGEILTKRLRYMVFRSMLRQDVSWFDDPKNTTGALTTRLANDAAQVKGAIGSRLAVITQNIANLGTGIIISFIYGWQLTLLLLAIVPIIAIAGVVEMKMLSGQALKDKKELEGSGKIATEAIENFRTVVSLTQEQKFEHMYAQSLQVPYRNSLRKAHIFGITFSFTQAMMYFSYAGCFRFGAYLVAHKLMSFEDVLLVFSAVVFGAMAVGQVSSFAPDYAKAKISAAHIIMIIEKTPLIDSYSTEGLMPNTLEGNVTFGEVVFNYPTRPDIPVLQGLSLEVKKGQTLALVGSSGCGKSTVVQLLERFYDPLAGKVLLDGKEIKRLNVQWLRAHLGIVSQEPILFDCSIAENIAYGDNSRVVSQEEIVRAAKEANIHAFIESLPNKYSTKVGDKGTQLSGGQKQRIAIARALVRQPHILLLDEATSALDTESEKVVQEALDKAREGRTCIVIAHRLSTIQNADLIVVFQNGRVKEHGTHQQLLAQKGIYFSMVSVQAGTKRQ", "assay": "in vitro"}, "[11]": {"target": "T2, P-gp", "assay": "P-gp efflux function (rhodamine 123 with or without verapamil), HK2 model on the iBAC", "conditions": "without inhibitor"}, "[12]": {"target": "T2, P-gp", "assay": "P-gp efflux function (rhodamine 123 with or without verapamil), hRPTECs on the iBAC", "conditions": "hRPTECs model, without inhibitor"}},
  "note": "Read-outs that look alike come from different tables or passages of the source.",
  "data": [
    {"molecule": "5(6)-Carboxyfluorescein [5−CF]", "values": [
      {"measurement": "Papp value", "setting": "[1]", "value": "9e-09", "unit": "cm/s"},
      {"measurement": "Papp value", "setting": "[2]", "value": "2e-09", "unit": "cm/s"},
      {"measurement": "Papp value", "setting": "[3]", "value": "3.9e-08", "unit": "cm/s"}
    ]},
    {"molecule": "CN(C)c1ccc(/C=C/c2cc[n+](C)cc2)cc1.[I-]", "note": "[ASP+, 4-Di-1-ASP]", "values": [
      {"measurement": "Papp value", "setting": "[1]", "value": "2.3e-06", "unit": "cm/s"},
      {"measurement": "Papp value", "setting": "[3]", "value": "9.2e-06", "unit": "cm/s"},
      {"measurement": "Papp value, iBAC compared with Transwell", "setting": "[3]; hRPTECs, day 4", "value": "significantly higher than that on the Transwell"}
    ]},
    {"molecule": "CCN1/C(=C/C=C/c2oc3ccccc3[n+]2CC)Oc2ccccc21.[I-]", "note": "[DiOC2]", "values": [
      {"measurement": "Cumulative amount of substrate in cells", "setting": "[4]; hRPTECs model, without inhibitor", "value": "very low"},
      {"measurement": "Papp value of DiOC2 without Ko143", "setting": "[4]; hRPTECs on the iBAC, DiOC2 10 μM", "value": "4.6e-06", "unit": "cm/s"},
      {"measurement": "Papp value of DiOC2 with Ko143", "setting": "[4]; hRPTECs on the iBAC, DiOC2 10 μM, Ko143 10 μM", "value": "4.1e-06", "unit": "cm/s"},
      {"measurement": "Cumulative amount of substrate in cells", "setting": "[5]", "value": "very low"}
    ]},
    {"molecule": "CN/C(=N/CCSCc1nc[nH]c1C)NC#N", "note": "[cimetidine, Cimetidine]", "values": [
      {"measurement": "Relative LDH release with cisplatin in the presence of the cimetidine", "setting": "[6]", "value": 109, "unit": "%"},
      {"measurement": "Relative LDH release with cisplatin in the presence of the cimetidine", "setting": "[7]", "value": 93, "unit": "%"}
    ]},
    {"molecule": "COc1cccc2c1C(=O)c1c(O)c3c(c(O)c1C2=O)C[C@@](O)(C(=O)CO)C[C@@H]3O[C@H]1C[C@H](N)[C@H](O)[C@H](C)O1", "note": "[doxorubicin]", "values": [
      {"measurement": "Toxicity on the apical side (cell viability)", "setting": "[8]", "value": "induced toxicity"},
      {"measurement": "Toxicity on the basal side (cell viability)", "setting": "[8]", "value": "only induced nephrotoxicity on the apical side dosing"},
      {"measurement": "IC50", "setting": "[9]", "value": 14.2, "unit": "µM"}
    ]},
    {"molecule": "COC(=O)c1ccccc1-c1c2ccc(=N)cc-2oc2cc(N)ccc12", "note": "[rhodamine 123, Rhodamine 123]", "values": [
      {"measurement": "Papp at 2 h, 2 μM", "setting": "[10]", "value": 13, "unit": "×10⁻⁶ cm/s"},
      {"measurement": "Cumulative amount of substrate in cells", "setting": "[11]", "value": "very low"},
      {"measurement": "Cumulative amount of substrate in cells", "setting": "[12]", "value": "very low"}
    ]},
    {"molecule": "CCN(CC)CCNC(=O)c1c(C)[nH]c(/C=C2\\C(=O)Nc3ccc(F)cc32)c1C", "note": "[sunitinib]", "values": [
      {"measurement": "Toxicity on the apical side (cell viability)", "setting": "[8]", "value": "induced toxicity"},
      {"measurement": "Toxicity on the basal side (cell viability)", "setting": "[8]", "value": "only induced nephrotoxicity on the apical side dosing"},
      {"measurement": "IC50", "setting": "[9]", "value": 29, "unit": "µM"}
    ]},
    {"molecule": "polymyxin B", "values": [
      {"measurement": "Toxicity on the apical side (cell viability)", "setting": "[8]; hRPTECs on the iBAC, apical administration, 48 h", "value": "induced toxicity"},
      {"measurement": "Toxicity on the basal side (cell viability)", "setting": "[8]; hRPTECs on the iBAC, basal administration, 48 h", "value": "induced toxicity"},
      {"measurement": "Toxicity on both sides (cell viability)", "setting": "[9]; apical and basal administration", "value": "not toxic"}
    ]}
  ]
}
